Molecular target: T1, AXL (fusion protein of amino acids 464-885 of the intracellular domain of human AXL with glutathione transferase) (Homo sapiens, UniProt P30530)
T1 sequence (P30530 464-885 isoform P30530-2): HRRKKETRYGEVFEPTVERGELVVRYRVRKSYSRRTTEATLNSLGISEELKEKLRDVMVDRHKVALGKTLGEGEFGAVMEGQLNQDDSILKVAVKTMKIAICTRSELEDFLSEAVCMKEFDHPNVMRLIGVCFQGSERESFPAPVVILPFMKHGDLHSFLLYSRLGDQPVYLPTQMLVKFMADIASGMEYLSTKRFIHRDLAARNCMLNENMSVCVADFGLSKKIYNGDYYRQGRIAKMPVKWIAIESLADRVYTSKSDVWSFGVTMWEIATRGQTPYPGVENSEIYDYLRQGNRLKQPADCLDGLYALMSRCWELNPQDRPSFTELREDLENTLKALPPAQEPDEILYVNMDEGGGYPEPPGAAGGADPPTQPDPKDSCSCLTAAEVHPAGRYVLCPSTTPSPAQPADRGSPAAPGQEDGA
Assay: Cell-Free Axl Kinase Inhibitory Activity

| Structure (SMILES) | IC50 [nM] |
| --- | --- |
| COc1ccc(-c2cnc(N)c(-c3ccc(NC(=O)c4cn(CC(F)(F)F)cc(-c5ccc(F)cc5)c4=O)cc3)c2)cc1O [Example 88, N-{4-[2-Amino-5-(3-hydroxy-4-methoxyphenyl)pyridin-3-yl]phenyl}-5-(4-fluorophenyl)-4-oxo-1-(2,2,2-trifluoroethyl)-1,4-dihydropyridine-3-carboxamide] | 1 to 10 |
| COCCOc1ccc(-c2cnc(N)c(-c3ccc(NC(=O)c4cn(CC(F)(F)F)cc(-c5ccc(F)cc5)c4=O)cc3)c2)cc1OC [Example 38, N-(4-{2-Amino-5-[3-methoxy-4-(2-methoxyethoxy)phenyl]pyridin-3-yl}phenyl)-5-(4-fluorophenyl)-4-oxo-1-(2,2,2-trifluoroethyl)-1,4-dihydropyridine-3-carboxamide] | 0.1 to 1 |
| COc1ccnc(N)c1-c1ccc(NC(=O)c2cn(CC(F)(F)F)cc(-c3ccc(F)cc3)c2=O)cc1 [Example 82, N-[4-(2-Amino-4-methoxypyridin-3-yl)phenyl]-5-(4-fluorophenyl)-4-oxo-1-(2,2,2-trifluoroethyl)-1,4-dihydropyridine-3-carboxamide] | 1 to 10 |
| COc1ncnc(N)c1-c1ccc(NC(=O)c2cn(CC(F)(F)F)cc(-c3ccc(F)cc3)c2=O)cc1 [Example 86, N-[4-(4-Amino-6-methoxypyrimidin-5-yl)phenyl]-5-(4-fluorophenyl)-4-oxo-1-(2,2,2-trifluoroethyl)-1,4-dihydropyridine-3-carboxamide] | 1 to 10 |
| CCn1cc(C(=O)Nc2ccc(-c3cc(-c4cnn(C)c4)cnc3N)cc2)c(=O)c(-c2ccc(F)cc2)c1 [Example 47, N-{4-[2-Amino-5-(1-methyl-1H-pyrazol-4-yl)pyridin-3-yl]phenyl}-1-ethyl-5-(4-fluorophenyl)-4-oxo-1,4-dihydropyridine-3-carboxamide] | 1 to 10 |

Further lines, results first:

| IC50 [nM] | Structure (SMILES) |
| --- | --- |
| 1 to 10 | COCCn1cc(C(=O)Nc2ccc(-c3cc(-c4cnn(C[C@H]5COCCO5)c4)cnc3N)cc2)c(=O)c(-c2ccc(F)cc2)c1 [Example 66, N-[4-(2-Amino-5-{1-[(2S)-1,4-dioxan-2-ylmethyl]-1H-pyrazol-4-yl}pyridin-3-yl)phenyl]-5-(4-fluorophenyl)-1-(2-methoxyethyl)-4-oxo-1,4-dihydropyridine-3-carboxamide] |
| 0.1 to 1 | COCCn1cc(C(=O)Nc2ccc(-c3cc(-c4ccc(OC)c(OC)c4)cnc3N)cc2)c(=O)c(-c2ccc(F)cc2)c1 [Example 5, N-{4-[2-Amino-5-(3,4-dimethoxyphenyl)pyridin-3-yl]phenyl}-5-(4-fluorophenyl)-1-(2-methoxyethyl)-4-oxo-1,4-dihydropyridine-3-carboxamide] |
| 0.1 to 1 | Cn1cc(-c2cnc(N)c(-c3ccc(NC(=O)c4cn(Cc5ccccc5)cc(-c5ccc(F)cc5)c4=O)cc3)c2)cn1 [Example 51, N-{4-[2-Amino-5-(1-methyl-1H-pyrazol-4-yl)pyridin-3-yl]phenyl}-1-benzyl-5-(4-fluorophenyl)-4-oxo-1,4-dihydropyridine-3-carboxamide] |
| 1 to 10 | COc1ccc(-c2cnc(N)c(-c3ccc(NC(=O)c4cn(CCF)cc(-c5ccc(F)cc5)c4=O)cc3)c2)cc1OC [Example 8, N-{4-[2-Amino-5-(3,4-dimethoxyphenyl)pyridin-3-yl]phenyl}-1-(2-fluoroethyl)-5-(4-fluorophenyl)-4-oxo-1,4-dihydropyridine-3-carboxamide] |
| 1 to 10 | COc1ccc(-n2cc(-c3ccc(F)cc3)c(=O)c(C(=O)Nc3ccc(-c4cc(-c5cnn(C)c5)cnc4N)cc3)n2)cc1 [Example 61, N-{4-[2-Amino-5-(1-methyl-1H-pyrazol-4-yl)pyridin-3-yl]phenyl}-5-(4-fluorophenyl)-1-(4-methoxyphenyl)-4-oxo-1,4-dihydropyridazine-3-carboxamide] |
| 1 to 10 | Cn1cc(-c2cnc(N)c(-c3ccc(NC(=O)c4cn(CCF)cc(-c5ccccc5)c4=O)cc3F)c2)cn1 [Example 55, N-{4-[2-Amino-5-(1-methyl-1H-pyrazol-4-yl)pyridin-3-yl]-3-fluorophenyl}-1-(2-fluoroethyl)-4-oxo-5-phenyl-1,4-dihydropyridine-3-carboxamide] |

— patent US8933103B2, “Pyridone derivatives” (Daiichi Sankyo Company, Limited, priority 2012, dated 2015)
